Tests used:
[1] = target: CDK12/CycK (Homo sapiens, UniProt Q9NYV4); experiment: CDK12/CycK high ATP kinase assay (TR-FRET, 2 mM ATP); assay type: biochemical; settings: 2 mM ATP (high ATP); median; read-out: CDK12/CyclinK, 2 mM ATP (high ATP), IC50-[mol/l] (median)
Method in brief: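 Read-out is TR-FRET (Eu-anti-rabbit IgG, anti-phospho-c-Myc Ser62 antibody, streptavidin-XL665) after EDTA stop. Reaction ran 60 min at 22 °C using 1 µM biotin-peptide and high ATP (2 mM) with roughly 0.75 nM recombinant CDK12/CycK, after 15 min compound pre-binding; normalised emission ratios yield IC50.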

[2] = target: T1, CDK9/CycT1 (Homo sapiens, UniProt P50750); experiment: CDK9/CycT1 high ATP kinase assay (TR-FRET, 2 mM ATP); assay type: biochemical; settings: 2 mM ATP (high ATP); median; read-out: CDK9/CyclinT1, 2 mM ATP (high ATP), IC50 (median)
T1 construct: Recombinant full-length His-tagged human CDK9 and CycT1; purchased Life Technologies PV4131; host or cells: insect cells
Method in brief: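 Full-length His-tagged human CDK9/CycT1 (insect cell, ~0.5 μg/mL) preincubated 15 min at 22 °C with compound in Tris pH 8.0, MgCl2, DTT buffer before reaction with biotinylated peptide substrate at high ATP (2 mM).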

[3] = target: T2, CDK12 (nuclear staining in CAL-120 cells) (Homo sapiens, UniProt Q9NYV4); experiment: CDK12 nuclear protein level: immunofluorescence/high content analysis (CAL-120); assay type: cell-based; settings: for DC50: CAL-120 cells, 24 h, immunofluorescence, 50% reduction of nuclear CDK12 staining intensity, median, read-out: CDK12 degradation IF, DC50- [mol/l] (median); for (IC50 CDK12 high ATP) to (Degradation DC50 CDK12) ratio: ratio of IC50 CDK12 high ATP kinase assay to DC50 CDK12 degradation (IF, CAL-120)
T2 construct: endogenous in cells; host or cells: CAL-120 human breast cancer cells (DSMZ ACC 459)
Method in brief: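 DC50 is the degrader concentration that halves nuclear CDK12 immunofluorescence relative to controls, measured by high-content imaging. CAL-120 cells were exposed to compound for 24 h at 37 °C before PFA fixation, and signal was normalized to DMSO and control wells.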

T1 sequence (P50750 whole entry): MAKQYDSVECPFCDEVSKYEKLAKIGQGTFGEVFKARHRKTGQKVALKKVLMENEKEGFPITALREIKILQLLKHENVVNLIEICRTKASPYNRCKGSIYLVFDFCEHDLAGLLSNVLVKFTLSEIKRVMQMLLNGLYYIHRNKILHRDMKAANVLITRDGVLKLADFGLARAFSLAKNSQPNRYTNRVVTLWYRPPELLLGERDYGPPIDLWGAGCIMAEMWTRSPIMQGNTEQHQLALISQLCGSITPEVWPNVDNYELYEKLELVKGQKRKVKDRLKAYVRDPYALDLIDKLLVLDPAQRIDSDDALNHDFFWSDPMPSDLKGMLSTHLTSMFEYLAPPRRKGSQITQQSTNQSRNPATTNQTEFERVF
T1 sequence (O60563 whole entry partner): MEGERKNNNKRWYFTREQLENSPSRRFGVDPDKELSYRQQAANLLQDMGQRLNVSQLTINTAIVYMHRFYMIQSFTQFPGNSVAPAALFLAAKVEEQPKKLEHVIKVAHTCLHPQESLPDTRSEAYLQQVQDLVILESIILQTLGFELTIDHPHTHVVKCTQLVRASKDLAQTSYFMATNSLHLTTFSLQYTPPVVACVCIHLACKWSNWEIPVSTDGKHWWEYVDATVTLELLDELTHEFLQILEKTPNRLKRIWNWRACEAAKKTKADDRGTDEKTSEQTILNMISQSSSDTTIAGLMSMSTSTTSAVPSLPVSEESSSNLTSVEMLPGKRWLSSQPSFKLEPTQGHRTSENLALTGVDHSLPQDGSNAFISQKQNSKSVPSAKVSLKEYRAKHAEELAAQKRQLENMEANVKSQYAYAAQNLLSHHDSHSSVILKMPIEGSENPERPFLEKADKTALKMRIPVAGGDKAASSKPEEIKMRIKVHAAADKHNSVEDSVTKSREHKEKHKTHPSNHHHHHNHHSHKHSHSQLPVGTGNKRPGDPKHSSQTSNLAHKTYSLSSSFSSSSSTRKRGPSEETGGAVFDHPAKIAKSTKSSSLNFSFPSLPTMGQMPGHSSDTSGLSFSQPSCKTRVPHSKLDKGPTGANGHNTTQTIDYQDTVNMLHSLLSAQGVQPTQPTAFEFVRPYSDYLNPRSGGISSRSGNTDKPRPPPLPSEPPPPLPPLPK
T2 sequence (Q9NYV4 whole entry): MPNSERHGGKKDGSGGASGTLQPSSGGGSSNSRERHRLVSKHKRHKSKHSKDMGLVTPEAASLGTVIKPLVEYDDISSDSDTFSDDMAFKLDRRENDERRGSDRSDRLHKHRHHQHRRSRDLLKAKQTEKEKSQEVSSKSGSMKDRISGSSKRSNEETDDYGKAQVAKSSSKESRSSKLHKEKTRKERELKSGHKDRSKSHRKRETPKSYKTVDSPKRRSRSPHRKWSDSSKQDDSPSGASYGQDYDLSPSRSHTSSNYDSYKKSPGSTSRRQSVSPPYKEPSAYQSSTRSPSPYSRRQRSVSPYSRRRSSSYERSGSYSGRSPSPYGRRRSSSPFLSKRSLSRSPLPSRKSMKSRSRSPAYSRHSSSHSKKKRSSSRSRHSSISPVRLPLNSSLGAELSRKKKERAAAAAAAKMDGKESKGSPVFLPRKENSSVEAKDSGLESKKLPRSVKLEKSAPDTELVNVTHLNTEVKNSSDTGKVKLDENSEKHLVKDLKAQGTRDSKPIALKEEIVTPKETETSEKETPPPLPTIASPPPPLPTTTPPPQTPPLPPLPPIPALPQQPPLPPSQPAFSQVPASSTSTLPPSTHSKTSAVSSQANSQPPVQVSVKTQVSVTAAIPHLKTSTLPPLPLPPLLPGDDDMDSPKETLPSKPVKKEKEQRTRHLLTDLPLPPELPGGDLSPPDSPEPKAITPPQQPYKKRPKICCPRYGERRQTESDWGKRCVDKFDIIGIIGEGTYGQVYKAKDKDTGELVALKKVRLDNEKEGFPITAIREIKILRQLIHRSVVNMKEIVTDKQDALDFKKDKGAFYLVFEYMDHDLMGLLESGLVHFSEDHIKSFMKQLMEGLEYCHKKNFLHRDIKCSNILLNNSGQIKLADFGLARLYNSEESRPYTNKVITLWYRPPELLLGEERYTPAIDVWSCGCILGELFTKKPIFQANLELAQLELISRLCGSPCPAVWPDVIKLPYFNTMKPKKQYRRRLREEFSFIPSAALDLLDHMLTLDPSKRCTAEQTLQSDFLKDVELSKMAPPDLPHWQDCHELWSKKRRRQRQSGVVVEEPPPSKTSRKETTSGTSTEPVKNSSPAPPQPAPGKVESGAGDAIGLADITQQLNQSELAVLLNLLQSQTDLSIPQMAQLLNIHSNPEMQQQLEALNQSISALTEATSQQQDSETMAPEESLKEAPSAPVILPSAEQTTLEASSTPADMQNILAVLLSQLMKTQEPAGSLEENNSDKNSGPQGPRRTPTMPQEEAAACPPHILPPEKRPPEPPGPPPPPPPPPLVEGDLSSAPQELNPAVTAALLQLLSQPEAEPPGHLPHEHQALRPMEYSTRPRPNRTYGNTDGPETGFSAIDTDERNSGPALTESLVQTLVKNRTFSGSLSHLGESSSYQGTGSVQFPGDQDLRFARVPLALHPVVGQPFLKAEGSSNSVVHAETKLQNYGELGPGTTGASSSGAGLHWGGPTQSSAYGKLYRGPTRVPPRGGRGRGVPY
T2 sequence (O75909 whole entry partner): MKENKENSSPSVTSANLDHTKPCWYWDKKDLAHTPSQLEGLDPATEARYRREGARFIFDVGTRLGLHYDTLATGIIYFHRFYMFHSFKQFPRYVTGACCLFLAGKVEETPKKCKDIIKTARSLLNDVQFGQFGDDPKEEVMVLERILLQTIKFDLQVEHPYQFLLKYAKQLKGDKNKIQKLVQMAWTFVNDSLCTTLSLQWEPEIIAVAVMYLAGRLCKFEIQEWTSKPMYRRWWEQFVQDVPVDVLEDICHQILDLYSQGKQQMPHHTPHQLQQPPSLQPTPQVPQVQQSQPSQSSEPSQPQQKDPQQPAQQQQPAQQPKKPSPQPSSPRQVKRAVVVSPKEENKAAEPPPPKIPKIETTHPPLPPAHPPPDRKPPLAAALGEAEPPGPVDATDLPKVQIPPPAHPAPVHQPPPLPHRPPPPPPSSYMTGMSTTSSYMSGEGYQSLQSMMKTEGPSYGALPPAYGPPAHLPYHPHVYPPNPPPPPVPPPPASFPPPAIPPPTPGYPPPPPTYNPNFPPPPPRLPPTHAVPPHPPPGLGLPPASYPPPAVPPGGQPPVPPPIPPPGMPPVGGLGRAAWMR
CDK12/CycK, sequence (Q9NYV4 with tags, fused parts or gaps): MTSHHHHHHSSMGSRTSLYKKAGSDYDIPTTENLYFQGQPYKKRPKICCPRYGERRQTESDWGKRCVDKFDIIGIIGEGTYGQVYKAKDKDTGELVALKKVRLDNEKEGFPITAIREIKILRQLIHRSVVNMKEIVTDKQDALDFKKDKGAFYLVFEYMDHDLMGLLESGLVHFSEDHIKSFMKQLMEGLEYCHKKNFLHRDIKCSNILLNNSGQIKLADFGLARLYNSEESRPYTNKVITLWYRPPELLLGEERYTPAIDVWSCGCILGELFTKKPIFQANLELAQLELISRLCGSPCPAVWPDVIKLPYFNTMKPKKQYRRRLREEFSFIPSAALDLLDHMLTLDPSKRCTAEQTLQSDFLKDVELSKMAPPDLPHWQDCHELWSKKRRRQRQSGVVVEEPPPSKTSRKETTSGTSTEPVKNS
CDK12/CycK, sequence (O75909 1-300 partner limits assumed): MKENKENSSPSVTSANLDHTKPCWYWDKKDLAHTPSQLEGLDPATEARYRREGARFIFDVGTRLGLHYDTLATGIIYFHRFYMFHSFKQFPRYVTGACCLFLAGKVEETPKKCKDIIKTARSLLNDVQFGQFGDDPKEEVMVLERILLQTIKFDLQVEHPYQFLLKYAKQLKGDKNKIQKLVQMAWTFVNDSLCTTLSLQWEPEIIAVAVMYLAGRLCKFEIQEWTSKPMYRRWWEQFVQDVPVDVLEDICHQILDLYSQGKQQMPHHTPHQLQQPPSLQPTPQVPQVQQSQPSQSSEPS

| IC50 [1] | IC50 [2] | DC50 [3] | (IC50 CDK12 high ATP) to (Degradation DC50 CDK12) ratio [3] | Compound |
| --- | --- | --- | --- | --- |
| 3.16 µM | > 20 µM | 0.0126 µM | 251 | CC1CN(c2nc(NCc3nc4ccccc4[nH]3)n3ncc(C(C)C)c3n2)CCO1 (racemic) [Example 11, (rac)-N-[(1H-benzimidazol-2-yl)methyl]-2-[2-methylmorpholin-4-yl]-8-(propan-2-yl)pyrazolo[1,5-a][1,3,5]triazin-4-amine] |
| 6.94 µM | > 20 µM | 0.00454 µM | 1528 | OC1CCCN(c2nc(NCc3nc4ccccc4[nH]3)n3ncc(Br)c3n2)C1 (racemic) [Example 16, (rac)-1-(4-{[(1H-benzimidazol-2-yl)methyl]amino}-8-bromopyrazolo[1,5-a][1,3,5]triazin-2-yl)piperidin-3-ol] |
| > 20 µM | > 20 µM | 0.0438 µM | >457 | CC(C)c1cnn2c(NCc3nc4ccccc4[nH]3)nc(Nc3ccccc3)nc12 [Example 13, N^4-[(1H-benzimidazol-2-yl)methyl]-N^2-phenyl-8-(propan-2-yl)pyrazolo[1,5-a][1,3,5]triazine-2,4-diamine] |
| > 16.4 µM | > 20 µM | 0.0146 µM | >1123 | CC(C)c1cnn2c(NCc3nc4ccccc4[nH]3)nc(Nc3ccncc3)nc12 [Example 14, N^4-[(1H-benzimidazol-2-yl)methyl]-8-(propan-2-yl)-N^2-(pyridin-4-yl)pyrazolo[1,5-a][1,3,5]triazine-2,4-diamine] |
| 6.02 µM | > 20 µM | 0.00505 µM | 1191 | Clc1cnn2c(NCc3nc4ccccc4[nH]3)nc(N3CCOCC3)nc12 [Example 15, N-[(1H-benzimidazol-2-yl)methyl]-8-chloro-2-(morpholin-4-yl)pyrazolo[1,5-a][1,3,5]triazin-4-amine] |
| 5.72 µM | > 20 µM | 0.00598 µM | 957 | OC1CCN(c2nc(NCc3nc4ccccc4[nH]3)n3ncc(Br)c3n2)CC1 [Example 17, 1-(4-{[(1H-benzimidazol-2-yl)methyl]amino}-8-bromopyrazolo[1,5-a][1,3,5]triazin-2-yl)piperidin-4-ol] |
| > 15.7 µM | > 20 µM | 0.00298 µM | >5268 | CN1CCN(c2nc(NCc3nc4ccccc4[nH]3)n3ncc(Br)c3n2)CC1 [Example 18, N-[(1H-benzimidazol-2-yl)methyl]-8-bromo-2-(4-methylpiperazin-1-yl)pyrazolo[1,5-a][1,3,5]triazin-4-amine] |
| 7.12 µM | > 20 µM | 0.0169 µM | 420 | O=C1CN(c2nc(NCc3nc4ccccc4[nH]3)n3ncc(Br)c3n2)CCN1 [Example 167, 4-(4-{[(1H-benzimidazol-2-yl)methyl]amino}-8-bromopyrazolo[1,5-a][1,3,5]triazin-2-yl)piperazin-2-one] |
| 5.78 µM | > 20 µM | 0.000532 µM | 10872 | C[C@@H]1CN(c2nc(NCc3nc4ccccc4[nH]3)n3ncc(Br)c3n2)CCN1 [Example 168, N-[(1H-benzimidazol-2-yl)methyl]-8-bromo-2-[(3R)-3-methylpiperazin-1-yl]pyrazolo[1,5-a][1,3,5]triazin-4-amine] |
| 13.7 µM | > 20 µM | 0.00109 µM | 12610 | C[C@H]1CN(c2nc(NCc3nc4ccccc4[nH]3)n3ncc(Br)c3n2)CCN1 [Example 169, N-[(1H-benzimidazol-2-yl)methyl]-8-bromo-2-[(3S)-3-methylpiperazin-1-yl]pyrazolo[1,5-a][1,3,5]triazin-4-amine] |
| 3.04 µM | > 20 µM | 0.000574 µM | 5303 | C[C@@H]1CN(c2nc(NCc3nc4c(F)c(F)ccc4[nH]3)n3ncc(C4CC4)c3n2)C[C@H](C)N1 [Example 170, 8-cyclopropyl-N-[(4,5-difluoro-1H-benzimidazol-2-yl)methyl]-2-[(3R,5S)-3,5-dimethylpiperazin-1-yl]pyrazolo[1,5-a][1,3,5]triazin-4-amine] |
| 6.56 µM | > 20 µM | 0.002 µM | 3278 | Fc1ccc2[nH]c(CNc3nc(N4C[C@@H]5CCCN[C@@H]5C4)nc4c(C5CC5)cnn34)nc2c1F [Example 171, 8-cyclopropyl-N-[(4,5-difluoro-1H-benzimidazol-2-yl)methyl]-2-[(4aS,7aS)-octahydro-6H-pyrrolo[3,4-b]pyridin-6-yl]pyrazolo[1,5-a][1,3,5]triazin-4-amine] |
| 0.641 µM | > 20 µM | 0.0011 µM | 581 | Fc1ccc2[nH]c(CNc3nc(N4CCOCC4)nc4c(C5CC5)cnn34)nc2c1F [Example 172, 8-cyclopropyl-N-[(4,5-difluoro-1H-benzimidazol-2-yl)methyl]-2-(morpholin-4-yl)pyrazolo[1,5-a][1,3,5]triazin-4-amine] |
| > 20 µM | > 20 µM | 0.00174 µM | >11498 | Fc1ccc2[nH]c(CNc3nc(N4C[C@@H]5C[C@H]4CO5)nc4c(C5CC5)cnn34)nc2c1F [Example 173, 8-cyclopropyl-N-[(4,5-difluoro-1H-benzimidazol-2-yl)methyl]-2-[(1S,4S)-2-oxa-5-azabicyclo[2.2.1]heptan-5-yl]pyrazolo[1,5-a][1,3,5]triazin-4-amine] |
| 1.19 µM | > 20 µM | 0.000645 µM | 1851 | Fc1ccc2[nH]c(CNc3nc(N4CCNCC4)nc4c(C5CC5)cnn34)nc2c1F [Example 174, 8-cyclopropyl-N-[(4,5-difluoro-1H-benzimidazol-2-yl)methyl]-2-(piperazin-1-yl)pyrazolo[1,5-a][1,3,5]triazin-4-amine] |
| 11 µM | > 20 µM | 0.000322 µM | 34272 | C[C@@H]1CN(c2nc(NCc3nc4cc(F)ccc4[nH]3)n3ncc(C4CC4)c3n2)C[C@H](C)N1 [Example 175, 8-cyclopropyl-2-[(3R,5S)-3,5-dimethylpiperazin-1-yl]-N-[(5-fluoro-1H-benzimidazol-2-yl)methyl]pyrazolo[1,5-a][1,3,5]triazin-4-amine] |
| 2.33 µM | > 20 µM | 0.00153 µM | 1525 | Brc1cnn2c(NCc3nc4ccccc4[nH]3)nc(N3CCNC4(CC4)C3)nc12 [Example 176, N-[(1H-benzimidazol-2-yl)methyl]-8-bromo-2-(4,7-diazaspiro[2.5]octan-7-yl)pyrazolo[1,5-a][1,3,5]triazin-4-amine] |
| > 20 µM | > 20 µM | 0.0357 µM | >561 | CN(C)[C@H]1CCN(c2nc(NCc3nc4ccccc4[nH]3)n3ncc(Br)c3n2)C1 [Example 177, N-[(1H-benzimidazol-2-yl)methyl]-8-bromo-2-[(3S)-3-(dimethylamino)pyrrolidin-1-yl]pyrazolo[1,5-a][1,3,5]triazin-4-amine] |
| > 20 µM | > 20 µM | 0.0255 µM | >783 | CN(C)[C@@H]1CCN(c2nc(NCc3nc4ccccc4[nH]3)n3ncc(Br)c3n2)C1 [Example 178, N-[(1H-benzimidazol-2-yl)methyl]-8-bromo-2-[(3R)-3-(dimethylamino)pyrrolidin-1-yl]pyrazolo[1,5-a][1,3,5]triazin-4-amine] |
| > 20 µM | > 20 µM | 0.00459 µM | >4361 | CN1CC[C@H]2CN(c3nc(NCc4nc5ccccc5[nH]4)n4ncc(Br)c4n3)C[C@H]21 [Example 179, N-[(1H-benzimidazol-2-yl)methyl]-8-bromo-2-[(3aS,6aS)-1-methylhexahydropyrrolo[3,4-b]pyrrol-5 (1H)-yl]pyrazolo[1,5-a][1,3,5]triazin-4-amine] |
| 17.3 µM | > 20 µM | 0.00159 µM | 10852 | Fc1ccc2[nH]c(CNc3nc(N4C[C@@H]5CCCN[C@@H]5C4)nc4c(C5CC5)cnn34)nc2c1 [Example 180, 8-cyclopropyl-N-[(5-fluoro-1H-benzimidazol-2-yl)methyl]-2-[(4aS, 7aS)-octahydro-6H-pyrrolo[3,4-b]pyridin-6-yl]pyrazolo[1,5-a][1,3,5]triazin-4-amine] |

Source: patent publication US20230117034A1, “PYRAZOLOTRIAZINES” (Bayer Aktiengesellschaft, priority 2019, published 2023)
